Results: patent US12171743B2, “Forms of aticaprant” (Janssen Pharmaceuticals, Inc., priority 2022, dated 2024)
Entries after “also recorded” stand apart in the source; their conditions may differ.

Key:
Type in all cases: physicochemical
[1] = Solubility observation of Form III in solvents
Experimental: Form III of aticaprant (20 mg) was weighed into 3 HPLC vials. Each vial was treated with 10 vol (250 μL) of the relevant solvent at 25° C. and shaken. The sample in t-BuOH was placed at 90° C. for a few seconds, where a solution was obtained. The solutions were filtered using a 0.45 μm PTFE membrane Acrodisc filter, before being flash frozen in an acetone/dry ice bath for 5 minutes. The samples were then freeze-dried overnight. The resulting solids were characterized by XRPD.
[…] Form III of aticaprant (20 mg) was dispensed into amber HPLC vials (×49) with a magnetic stirrer bar. Each vial was treated with the relevant solvent (5 vol) at RT and stirred at 300 rpm for 10 mins. If suspensions were still observed, increasing volumes of the solvent were added until the material fully dissolved or until a maximum of 80 vol had been used (Table 20). All samples were heated to 50° C. and held for 1 hour. The samples were then cooled to 5° C. at a rate of 0.1° C./min and left to stir overnight. Any suspensions remaining at this point were subjected to maturation at RT/50° C. for 2 weeks.

[2] = Competitive slurries of Forms I, II and III (thermodynamic stability)
Experimental: Competitive slurrying experiments were carried out with Form I, Form II and Form III to determine the relative order of stability. Slurrying experiments were carried out in six different solvent systems 5 and 50° C.
Saturated solutions of Form III were prepared in different solvent systems. See, Table 32. Each vial was filled with the relevant solvent (1.5 mL in each) and placed to equilibrate at the relevant temperature. After this time, small spatulas of the solid were added until the solid no longer dissolved. Samples were left to stir at 5° C. and 50° C. for ca. 2 weeks or longer as noted.
Form III (180 mg) and Form II (180 mg) were combined into a 4 mL vial. The sample was placed on a turbula blender for 30 mins, after which a small sample was taken and analyzed by XRPD to confirm a mixture. 10 mg of this mixture was weighed and a mixture of Form I and Form II was instead used as seeds in the competitive slurries. To each vial was added the mixture of Forms I and II (7 mg). See, Table 33.

[3] = Gravimetric vapor sorption (GVS)
Experimental: Sorption isotherms were obtained using a SMS DVS Intrinsic moisture sorption analyzer, controlled by DVS Intrinsic Control software. The sample temperature was maintained at 25° C. by the instrument controls. The humidity was controlled by mixing streams of dry and wet nitrogen, with a total flow rate of 200 mL/min. The relative humidity was measured by a calibrated Rotronic probe (dynamic range of 1.0-100% RH), located near the sample. The weight change, (mass relaxation) of the sample as a function of % RH was constantly monitored by a microbalance (accuracy ±0.005 mg).
Typically, 5-30 mg of sample was placed in a tared mesh stainless steel basket under ambient conditions. The sample was loaded and unloaded at 40% RH and 25° C. (typical room conditions). A moisture sorption isotherm was performed as outlined below (2 scans per complete cycle). The standard isotherm was performed at 25° C. at 10% RH intervals over a 0-90% RH range. Typically, a double cycle (4 scans) was carried out. Data analysis was carried out within Microsoft Excel using the DVS Analysis Suite. See, Table 15.
The sample was recovered after completion of the isotherm and re-analyzed by XRPD.

[4] = Static storage at elevated temperature and humidity, form by XRPD; conditions: for form after static storage: (10 days), Form II prepared at 1 g scale; for form (XRPD) after static storage: 1 week
Experimental: After static storage of amorphous aticaprant at 40° C./75% RH for 1 week, Form II was obtained.
Fresh amorphous aticaprant was prepared for static storage at 40° C./75% RH for 1 week. Both solvents produced amorphous aticaprant. Tg was determined to be 45.5° C. by mDSC. See, Table 19 for the characterization of amorphous aticaprant.
Form I was obtained in the screens from ethyl acetate and MEK (both through solvent evaporation). It also was obtained from addition of heptane antisolvent to solutions in ethyl acetate and diethyl ether. The sample from the solubility assessment in ethyl acetate was isolated and characterized by XRPD, ^1H NMR, and DSC (FIG. 7), and static storage at elevated temperature and humidity.

For `Cc1cc(C)cc(C2CCCN2Cc2ccc(Oc3ccc(C(N)=O)cc3F)cc2)c1` (centres unmarked) [Form III], the solubility observation ([1]; 70% THF/H2O, 250 μL/10 vol, RT) was “Soluble, biphasic”, the solubility observation ([1]; t-BuOH at 90° C.) was “(soluble at 90° C.)” and the solubility observation ([1]; t-BuOH, 250 μL/10 vol, 25° C.) was “Insoluble”. The “relative stability among Forms I, II and III (in words)” value [2] was “most stable form”, the GVS hysteresis [3] was “No hysteresis observed” and the “XRPD / form after GVS” value [3] was “XRPD unchanged after GVS”. The GVS max uptake ([3]; at 90% RH, 25° C.) was 0.4% max uptake at 90% RH.

For `Cc1cc(C)cc(C2CCCN2Cc2ccc(Oc3ccc(C(N)=O)cc3F)cc2)c1` (centres unmarked) [Form II], the “stability after static storage at elevated temperature and humidity (in words)” value [4] was “remained stable”, the “form after static storage” value ([4]; 25° C./97% RH) was “Form II” and the “form after static storage” value ([4]; 40° C./75% RH) was “Form II”. For the same compound, the GVS hysteresis [3] was “slight hysteresis”, the “XRPD / form after GVS” value [3] was “XRPD post-GVS: Form II” and the “hygroscopicity (in words)” value [3] was “slightly hygroscopic; also recorded: Sample exhibits low hygroscopicity”.

With `Cc1cc(C)cc(C2CCCN2Cc2ccc(Oc3ccc(C(N)=O)cc3F)cc2)c1` (centres unmarked) [Form I] the “stability after static storage at elevated temperature and humidity (in words)” value [4] was “remains stable” and the “form (XRPD) after static storage” value ([4]; 40° C./75% RH) was “Form I”.

With `Cc1cc(C)cc(C2CCCN2Cc2ccc(Oc3ccc(C(N)=O)cc3F)cc2)c1` (centres unmarked) [amorphous aticaprant] the “form (XRPD) after static storage” value ([4]; 40° C./75% RH) was “Form II” and the “form (XRPD) after static storage” value ([4]; 40° C./75% RH, listed as amorphous Aticaprant) was “Form II”.
